Results published in US10550111B2, “Pyrimidine urea compound containing isoxazolines and use thereof” (SHENYANG SINOCHEM AGROCHEMICALS R&D CO., LTD, priority 2014, dated 2020).

Experiments:
Type in all cases: in vivo
[1] = system: Echinochloa crus-galli (L.) Beauv.; test: Bioassay of herbicidal activity in greenhouse (further screening)
Outline: (§1)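 Monocot and dicot weeds grown in greenhouse pots; emulsifiable concentrate track-sprayed at 500 L/hm² pre-emergence (24 h after seeding) or post-emergence (grasses 2–3-leaf, broad-leaves 2–4-leaf). Growth inhibition scored visually, 0 = no action, 100 = all dead or not emerged.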

[2] = system: Setaria glauca (L.) Beauv.; test: as above
Outline: as §1

Zinnia elegans Jacq. = test: as above
Outline: as §1

[3] = system: Abutilon theophrasti Medic.; test: as above
Outline: as §1

[4] = system: broad-leaf weeds and grass weeds; test: General screening of herbicidal activity in greenhouse; conditions: 1000 g a.i./hm^2;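 further: 0 means no visible effect and 100 means all weeds dead or not emerged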
Outline: as §1

rice = test: Crop safety study in greenhouse; conditions: 7.5-37.5 g a.i./hm^2; pre-emergence and post-emergence application
Description: (§2) Seeds of soybean, cotton, maize, wheat and rice were sown in nutrition soil in paper pot (9 cm diameter), covered with soil in 1 cm and grown in the greenhouse under good growth conditions (temperature, atmospheric humidity, water supply). The compounds of the present invention as emulsifiable concentrate, were applied in pre-emergence and post-emergence treatment by track sprayer (Engineer Research Ltd., pressure 1.95 kg/cm^2, volume 500 L/hm^2, track speed 1.48 km/h). Pre-emergence treatment was conducted after seeding 24 hours and post-emergence treatment was done when the respective weeds reached predetermined leaf stage (soybean and cotton at 2- to 4-leaf stage and maize, wheat and rice at 3-leaf stage), the state of growth of the respective crops were visually observed to determine the safety in accordance with the following evaluation standard.
(§3) Safety rating scale (%): 0 means no damage to crops; 100 means to kill crops completely.

maize = test: Crop safety study in greenhouse; conditions: 7.5-37.5 g a.i./hm^2; pre-emergence and post-emergence application
Description: as §2, §3

wheat = test: Crop safety study in greenhouse; conditions: 7.5-37.5 g a.i./hm^2; pre-emergence and post-emergence application
Description: as §2, §3

SMILES: Cn1c(C(F)(F)F)cc(=O)n(-c2cc(C3=NOC(C)(COC(=O)COc4ccc(Cl)cc4Cl)C3)c(Cl)cc2F)c1=O (stereo not shown) [Compound 83]
- Growth inhibition rate, Post-emergence treatment, Echinochloa crus-galli (L.) Beauv. ([1]; dose 7.5 g a.i./hm^2): 25%
- Growth inhibition rate, Post-emergence treatment, Echinochloa crus-galli (L.) Beauv. ([1]; dose 15 g a.i./hm^2): 25%
- Growth inhibition rate, Post-emergence treatment, Echinochloa crus-galli (L.) Beauv. ([1]; dose 37.5 g a.i./hm^2): 30%
- Growth inhibition rate, Post-emergence treatment, Echinochloa crus-galli (L.) Beauv. ([1]; dose 150 g a.i./hm^2): 45%
- Growth inhibition rate, Post-emergence treatment, Echinochloa crus-galli (L.) Beauv. ([1]; dose 600 g a.i./hm^2): 90%
- Growth inhibition rate, Pre-emergence treatment, Echinochloa crus-galli (L.) Beauv. ([1]; dose 7.5 g a.i./hm^2): 10%
- Growth inhibition rate, Pre-emergence treatment, Echinochloa crus-galli (L.) Beauv. ([1]; dose 15 g a.i./hm^2): 10%
- Growth inhibition rate, Pre-emergence treatment, Echinochloa crus-galli (L.) Beauv. ([1]; dose 37.5 g a.i./hm^2): 25%
- Growth inhibition rate, Pre-emergence treatment, Echinochloa crus-galli (L.) Beauv. ([1]; dose 150 g a.i./hm^2): 90%
- Growth inhibition rate, Pre-emergence treatment, Echinochloa crus-galli (L.) Beauv. ([1]; dose 600 g a.i./hm^2): 100%
- Growth inhibition rate, Post-emergence treatment, Setaria glauca (L.) Beauv. ([2]; dose 7.5 g a.i./hm^2): 30%
- Growth inhibition rate, Post-emergence treatment, Setaria glauca (L.) Beauv. ([2]; dose 15 g a.i./hm^2): 45%
- Growth inhibition rate, Post-emergence treatment, Setaria glauca (L.) Beauv. ([2]; dose 37.5 g a.i./hm^2): 50%
- Growth inhibition rate, Post-emergence treatment, Setaria glauca (L.) Beauv. ([2]; dose 150 g a.i./hm^2): 70%
- Growth inhibition rate, Post-emergence treatment, Setaria glauca (L.) Beauv. ([2]; dose 600 g a.i./hm^2): 85%
- Growth inhibition rate, Pre-emergence treatment, Setaria glauca (L.) Beauv. ([2]; dose 7.5 g a.i./hm^2): 10%
- Growth inhibition rate, Pre-emergence treatment, Setaria glauca (L.) Beauv. ([2]; dose 15 g a.i./hm^2): 15%
- Growth inhibition rate, Pre-emergence treatment, Setaria glauca (L.) Beauv. ([2]; dose 37.5 g a.i./hm^2): 35%
- Growth inhibition rate, Pre-emergence treatment, Setaria glauca (L.) Beauv. ([2]; dose 150 g a.i./hm^2): 80%
- Growth inhibition rate, Pre-emergence treatment, Setaria glauca (L.) Beauv. ([2]; dose 600 g a.i./hm^2): 100%
- Growth inhibition rate, Post-emergence treatment, Zinnia elegans Jacq. (Zinnia elegans Jacq.; dose 7.5 g a.i./hm^2): 65%
- Growth inhibition rate, Post-emergence treatment, Zinnia elegans Jacq. (Zinnia elegans Jacq.; dose 15 g a.i./hm^2): 90%
- Growth inhibition rate, Post-emergence treatment, Zinnia elegans Jacq. (Zinnia elegans Jacq.; dose 37.5 g a.i./hm^2): 98%
- Growth inhibition rate, Post-emergence treatment, Zinnia elegans Jacq. (Zinnia elegans Jacq.; dose 150 g a.i./hm^2): 100%
- Growth inhibition rate, Post-emergence treatment, Zinnia elegans Jacq. (Zinnia elegans Jacq.; dose 600 g a.i./hm^2): 100%
- Growth inhibition rate, Pre-emergence treatment, Zinnia elegans Jacq. (Zinnia elegans Jacq.; dose 7.5 g a.i./hm^2): 0%
- Growth inhibition rate, Pre-emergence treatment, Zinnia elegans Jacq. (Zinnia elegans Jacq.; dose 15 g a.i./hm^2): 10%
- Growth inhibition rate, Pre-emergence treatment, Zinnia elegans Jacq. (Zinnia elegans Jacq.; dose 37.5 g a.i./hm^2): 50%
- Growth inhibition rate, Pre-emergence treatment, Zinnia elegans Jacq. (Zinnia elegans Jacq.; dose 150 g a.i./hm^2): 100%
- Growth inhibition rate, Pre-emergence treatment, Zinnia elegans Jacq. (Zinnia elegans Jacq.; dose 600 g a.i./hm^2): 100%
- Growth inhibition rate, Post-emergence treatment, Abutilon theophrasti Medic. ([3]; dose 7.5 g a.i./hm^2): 65%
- Growth inhibition rate, Post-emergence treatment, Abutilon theophrasti Medic. ([3]; dose 15 g a.i./hm^2): 98%
- Growth inhibition rate, Post-emergence treatment, Abutilon theophrasti Medic. ([3]; dose 37.5 g a.i./hm^2): 100%
- Growth inhibition rate, Post-emergence treatment, Abutilon theophrasti Medic. ([3]; dose 150 g a.i./hm^2): 100%
- Growth inhibition rate, Post-emergence treatment, Abutilon theophrasti Medic. ([3]; dose 600 g a.i./hm^2): 100%
- Growth inhibition rate, Pre-emergence treatment, Abutilon theophrasti Medic. ([3]; dose 7.5 g a.i./hm^2): 0%
- Growth inhibition rate, Pre-emergence treatment, Abutilon theophrasti Medic. ([3]; dose 15 g a.i./hm^2): 30%
- Growth inhibition rate, Pre-emergence treatment, Abutilon theophrasti Medic. ([3]; dose 37.5 g a.i./hm^2): 50%
- Growth inhibition rate, Pre-emergence treatment, Abutilon theophrasti Medic. ([3]; dose 150 g a.i./hm^2): 100%
- Growth inhibition rate, Pre-emergence treatment, Abutilon theophrasti Medic. ([3]; dose 600 g a.i./hm^2): 100%
- pre-emergence and post-emergence herbicidal activity against broad-leaf weeds and grass weeds [4]: good
- Crop safety, rice (rice): good safety
- Crop safety, maize (maize): good safety
- Crop safety, wheat (wheat): good safety

SMILES: Cn1c(C(F)(F)F)cc(=O)n(-c2cc(C3=NOC(C)(COC(=O)C4CC4)C3)c(Cl)cc2F)c1=O (stereo not shown) [Compound 45]
- Growth inhibition rate, Post-emergence treatment, Echinochloa crus-galli (L.) Beauv. ([1]; dose 7.5 g a.i./hm^2): 15%
- Growth inhibition rate, Post-emergence treatment, Echinochloa crus-galli (L.) Beauv. ([1]; dose 15 g a.i./hm^2): 15%
- Growth inhibition rate, Post-emergence treatment, Echinochloa crus-galli (L.) Beauv. ([1]; dose 37.5 g a.i./hm^2): 25%
- Growth inhibition rate, Post-emergence treatment, Echinochloa crus-galli (L.) Beauv. ([1]; dose 150 g a.i./hm^2): 80%
- Growth inhibition rate, Post-emergence treatment, Echinochloa crus-galli (L.) Beauv. ([1]; dose 600 g a.i./hm^2): 100%
- Growth inhibition rate, Pre-emergence treatment, Echinochloa crus-galli (L.) Beauv. ([1]; dose 7.5 g a.i./hm^2): 5%
- Growth inhibition rate, Pre-emergence treatment, Echinochloa crus-galli (L.) Beauv. ([1]; dose 15 g a.i./hm^2): 10%
- Growth inhibition rate, Pre-emergence treatment, Echinochloa crus-galli (L.) Beauv. ([1]; dose 37.5 g a.i./hm^2): 20%
- Growth inhibition rate, Pre-emergence treatment, Echinochloa crus-galli (L.) Beauv. ([1]; dose 150 g a.i./hm^2): 85%
- Growth inhibition rate, Pre-emergence treatment, Echinochloa crus-galli (L.) Beauv. ([1]; dose 600 g a.i./hm^2): 100%
- Growth inhibition rate, Post-emergence treatment, Setaria glauca (L.) Beauv. ([2]; dose 7.5 g a.i./hm^2): 30%
- Growth inhibition rate, Post-emergence treatment, Setaria glauca (L.) Beauv. ([2]; dose 15 g a.i./hm^2): 45%
- Growth inhibition rate, Post-emergence treatment, Setaria glauca (L.) Beauv. ([2]; dose 37.5 g a.i./hm^2): 50%
- Growth inhibition rate, Post-emergence treatment, Setaria glauca (L.) Beauv. ([2]; dose 150 g a.i./hm^2): 85%
- Growth inhibition rate, Post-emergence treatment, Setaria glauca (L.) Beauv. ([2]; dose 600 g a.i./hm^2): 98%
- Growth inhibition rate, Pre-emergence treatment, Setaria glauca (L.) Beauv. ([2]; dose 7.5 g a.i./hm^2): 70%
- Growth inhibition rate, Pre-emergence treatment, Setaria glauca (L.) Beauv. ([2]; dose 15 g a.i./hm^2): 80%
- Growth inhibition rate, Pre-emergence treatment, Setaria glauca (L.) Beauv. ([2]; dose 37.5 g a.i./hm^2): 95%
- Growth inhibition rate, Pre-emergence treatment, Setaria glauca (L.) Beauv. ([2]; dose 150 g a.i./hm^2): 90%
- Growth inhibition rate, Pre-emergence treatment, Setaria glauca (L.) Beauv. ([2]; dose 600 g a.i./hm^2): 100%
- Growth inhibition rate, Post-emergence treatment, Zinnia elegans Jacq. (Zinnia elegans Jacq.; dose 7.5 g a.i./hm^2): 95%
- Growth inhibition rate, Post-emergence treatment, Zinnia elegans Jacq. (Zinnia elegans Jacq.; dose 15 g a.i./hm^2): 100%
- Growth inhibition rate, Post-emergence treatment, Zinnia elegans Jacq. (Zinnia elegans Jacq.; dose 37.5 g a.i./hm^2): 100%
- Growth inhibition rate, Post-emergence treatment, Zinnia elegans Jacq. (Zinnia elegans Jacq.; dose 150 g a.i./hm^2): 100%
- Growth inhibition rate, Post-emergence treatment, Zinnia elegans Jacq. (Zinnia elegans Jacq.; dose 600 g a.i./hm^2): 100%
- Growth inhibition rate, Pre-emergence treatment, Zinnia elegans Jacq. (Zinnia elegans Jacq.; dose 7.5 g a.i./hm^2): 20%
- Growth inhibition rate, Pre-emergence treatment, Zinnia elegans Jacq. (Zinnia elegans Jacq.; dose 15 g a.i./hm^2): 20%
- Growth inhibition rate, Pre-emergence treatment, Zinnia elegans Jacq. (Zinnia elegans Jacq.; dose 37.5 g a.i./hm^2): 90%
- Growth inhibition rate, Pre-emergence treatment, Zinnia elegans Jacq. (Zinnia elegans Jacq.; dose 150 g a.i./hm^2): 95%
- Growth inhibition rate, Pre-emergence treatment, Zinnia elegans Jacq. (Zinnia elegans Jacq.; dose 600 g a.i./hm^2): 100%
- Growth inhibition rate, Post-emergence treatment, Abutilon theophrasti Medic. ([3]; dose 7.5 g a.i./hm^2): 98%
- Growth inhibition rate, Post-emergence treatment, Abutilon theophrasti Medic. ([3]; dose 15 g a.i./hm^2): 100%
- Growth inhibition rate, Post-emergence treatment, Abutilon theophrasti Medic. ([3]; dose 37.5 g a.i./hm^2): 100%
- Growth inhibition rate, Post-emergence treatment, Abutilon theophrasti Medic. ([3]; dose 150 g a.i./hm^2): 100%
- Growth inhibition rate, Post-emergence treatment, Abutilon theophrasti Medic. ([3]; dose 600 g a.i./hm^2): 100%
- Growth inhibition rate, Pre-emergence treatment, Abutilon theophrasti Medic. ([3]; dose 7.5 g a.i./hm^2): 98%
- Growth inhibition rate, Pre-emergence treatment, Abutilon theophrasti Medic. ([3]; dose 15 g a.i./hm^2): 100%
- Growth inhibition rate, Pre-emergence treatment, Abutilon theophrasti Medic. ([3]; dose 37.5 g a.i./hm^2): 95%
- Growth inhibition rate, Pre-emergence treatment, Abutilon theophrasti Medic. ([3]; dose 150 g a.i./hm^2): 100%
- Growth inhibition rate, Pre-emergence treatment, Abutilon theophrasti Medic. ([3]; dose 600 g a.i./hm^2): 100%
- pre-emergence and post-emergence herbicidal activity against broad-leaf weeds and grass weeds [4]: good
- Crop safety, rice (rice): good safety
- Crop safety, maize (maize): good safety
- Crop safety, wheat (wheat): good safety
